Series [1] has as its system E. coli HM22 persister cells. Format: cell-based, Escherichia coli. As to conditions: for persister cells killed: 1 h in PBS, relative to untreated.
The test system of series [2] is E. coli HM22 persister cells. Briefly: Growth and CFU of treated persister cells during wake-up in LB.
Description: At each designated time point, 1 mL of the cell culture was collected, washed with PBS, and centrifuged at a speed of 13,000 rpm for 3 min. Treated persister cells and untreated controls were washed and resuspended with LB medium supplemented with DPA, and incubated at 37° C. with shaking at 200 rpm. At each designated time point, samples were collected to quantify intracellular antibiotic concentration as described above and to determine growth by measuring OD600.
Series [3] concerns E. coli HM22 normal cells. The series can be described thus: Killing of normal (exponential phase) cells, CFU by drop plate. Format: cell-based, Escherichia coli. As to conditions: for normal cells killed: 100 μg/mL, 1 h in PBS.
In another series the test system is AcrAB-TolC mutants. Briefly: Killing of efflux mutants compared with wild-type (in words). Format: cell-based, Escherichia coli. Particulars: normal cells of ΔacrA, ΔacrB, ΔtolC.
Series [4] has as its system E. coli HM22 normal and persister cells. As to conditions: for intracellular accumulation, persister cells relative to normal cells: treated at 100 μg/mL, reporter bioassay.
The subject of a further series is E. coli HM22. The series can be described thus: IC50 of killing, individual treatments vs co-treatment. Format: cell-based. As to conditions: Escherichia coli, read-out: IC50 (concentration required to kill 50% of the population).
For series [5], the system named is E. coli HM22 persister cells. The series can be described thus: Concurrent treatment with ampicillin in LB compared with ampicillin alone. As to conditions: concurrent 100 μg/mL ampicillin and 100 μg/mL test antibiotic. The class given is cell-based, Escherichia coli. The source says:
E. coli HM22 was used as the model strain in this test because it contains the hipA7 allele that leads to high-level persistence.

The test system of another series is purified 70S ribosome. Particulars: read-out: IC50 (concentration of the antibiotic needed to inhibit 50% of the purified 70S ribosome); cited from earlier work.
Series [6] in a line: Validation of chloroform extraction (partition coefficient). As to conditions: concentration in chloroform phase over aqueous phase.
Description: To validate if chloroform is effective in extracting the antibiotics after cell lysis, a validation test was performed. Briefly, 100 μL of antibiotic solution was mixed with 100 μL chloroform in a microcentrifuge tube by vortexing. Then the solution was centrifuged for 5 min at 5,000×g. […] Each phase was collected separately and evaporated overnight in a desiccator. […] The samples were then transferred to a 96-well plate where absorbance readings were measured using an Epoch 2 Microplate Spectrophotometer (BioTek, Winooski, VT, USA). […] The concentrations were then calculated by comparing with a standard curve of absorbance with known concentrations of corresponding antibiotic.
For series [7], the system named is E. coli JW5536 (ΔacrB mutant). Briefly: Killing of normal cells of efflux mutant ΔacrB. Particulars: 100 μg/mL.
Description: (§1) The mid-exponential phase cultures were collected by centrifugation at 13,000 rpm for 3 min at room temperature. The amount of cells used for each treatment was adjusted to OD600 of 0.5 in 500 μL. They were then washed with PBS (pH 7.4) three times. […] Relative viability was normalized by the untreated population. Each experimental condition was tested with five biological repeats.
Series [8] has as its system E. coli HM22 persister cells. Briefly: LIVE/DEAD staining of persister cells during treatment and wake-up. Format: cell-based, Escherichia coli. As to conditions: 100 μg/mL treated, washed. As for the experimental part:
. The present invention thus hypothesized that the killing effects took place during persister wake-up when the external antibiotic was withdrawn (after the treated cells were plated on antibiotic-free agar plates in this test). […] . […] .
Treated and untreated samples were washed once with PBS (pH 7.4). Cells were then immediately labeled with LIVE/DEAD BacLight bacterial viability kit (Life Technologies Inc., Carlsbad, CA) with a final concentration of 7.5 μM SYTO9 and 30 μM propidium iodide. After 15 min of staining, the cells were pelleted to remove the staining solution, re-suspended in PBS and vortexed briefly. Labeled cells were then imaged on microscope slides using an Axio Imager M1 fluorescence microscope (Axio Imager M1 fluorescence microscope, Carl Zeiss Inc., Berlin, Germany) with an Orca-Flash 4.0 LT camera (Hamamatsu Photonics, Hamamatsu City, Japan). At least 5 random spots were imaged for each sample. The mean gray value intensity was used to calculate the mean intensity generated from each channel (green and red). Each condition was tested with three biological replicates and 5 images were randomly taken from each sample.

Series [9] deals with E. coli JW5503 (ΔtolC mutant). Briefly: Killing of normal cells of efflux mutant ΔtolC. Particulars: 100 μg/mL.
Description: as §1
Series [10] relates to E. coli HM22 normal cells. As to conditions: 100 μM CCCP 10 min, then 100 μg/mL minocycline 1 h.
Excerpt: Carbonyl cyanide m-chlorophenylhydrazone (CCCP) was used to depotentiate the membrane of E. coli normal cells and thus, mimic the change in membrane potential of persister cells. CCCP dissipates the PMF by allowing protons to leak across the membrane and thus inactivate efflux pumps. […] An overnight culture of E. coli HM22 was sub-cultured in LB medium supplemented with DPA with a starting OD600 of 0.05 until OD600 reached 0.3-0.45. The mid-exponential culture was collected by centrifugation at a speed of 13,000 rpm for 3 min at room temperature. […] Each experimental condition was tested with three biological replicates.
Series [11] relates to E. coli JW4364 (ΔacrA mutant). Briefly: Killing of normal cells of efflux mutant ΔacrA. As to conditions: 100 μg/mL.
Description: as §1
Setting [12] is: after treatment at 100 μg/mL for 1 h.

Molecules are shown by their SMILES. Read-outs that look alike come from different tables or passages of the source.

`CN(C)[C@@H]1C(O)=C(C(N)=O)C(=O)[C@@]2(O)C(O)=C3C(=O)c4c(O)c(NC(=O)CN5CCCC5)cc(F)c4C[C@H]3C[C@@H]12` [eravacycline]: the persister cells killed in series [1] (30 μg/mL) was 50.9±7.7%; in series [1] (50 μg/mL), 98.2±0.5%; in [1] (100 μg/mL), 99.9±0.03%. In series [1] (100 μg/mL), the “killing of persister cells in logs” value was determined as 3 log. The “regrowth of treated persister cells after removal of extracellular antibiotic and adding LB (in words)” value in series [2] (OD600 / growth) is listed as “unable to resume growth”. Moreover, the “decrease of CFU of treated persister cells after removal of extracellular antibiotic and addition of nutrient” value in [2] (over 8 hours) is recorded as 97.1±0.9%. In series [3], the normal cells killed came out at 63.5±15.8%. In addition, the “killing of normal cells (in words)” value in [3] (concentrations below 100 μg/mL (0-50 μg/mL)) is listed as “no significant killing”. In addition, the “killing of efflux mutants compared to the wild-type strain (in words)” value in the series on AcrAB-TolC mutants is on record as “more killing”. For the same compound, the “intracellular concentration in normal cells” value in series [4] (after treatment at 100 μg/mL) was found to be 24.2 ± 1.7 µg/mL. Besides, the “intracellular concentration in persister cells” value in series [4] (after treatment at 100 μg/mL) amounted to 92.1 ± 4.4 µg/mL. The “intracellular accumulation, persister cells relative to normal cells” value in [4] stood at 3.8 times. Besides, the IC50 in the series on E. coli HM22 is 4.8 µg/mL; in the series on purified 70S ribosome it was 200 ± 100 nM. Besides, the “additional killing compared to 100 μg/mL ampicillin alone” value in series [5] amounted to 99.9%. Also, the “Partition Coefficient” value in series [6] is 3.0 ± 0.3.
For the compound `CN(C)[C@@H]1C(O)=C(C(N)=O)C(=O)[C@@]2(O)C(O)=C3C(=O)c4c(O)cccc4[C@@](C)(O)[C@H]3C[C@@H]12` [tetracycline], in series [4] (setting [12]), the “intracellular concentration in normal cells” value came out at 5.5e-06 ± 1e-07 µg/mL and the “intracellular concentration in persister cells” value was determined as 1.6e-06 ± 8e-07 µg/mL.
For the compound `CC1(C)S[C@@H]2[C@H](NC(=O)[C@H](N)c3ccccc3)C(=O)N2[C@H]1C(=O)O` [ampicillin], in the series on E. coli HM22, the IC50 was found to be 1 µg/mL.
The compound `CO[C@H]1/C=C/O[C@@]2(C)Oc3c(C)c([O-])c4c(O)c(cc(O)c4c3C2=O)NC(=O)/C(C)=C\C=C\[C@H](C)[C@H](O)[C@@H](C)[C@@H](O)[C@@H](C)[C@H](OC(C)=O)[C@@H]1C.[Na+]` [rifamycin SV] gave a persister cells killed in series [1] (100 μg/mL) of 75.0±5.12%. Moreover, the normal cells killed entry in series [3] is listed as “did not kill”. Besides, in series [4] (after treatment at 100 μg/mL), the “intracellular concentration in normal cells” value worked out at 4.3 ± 0.9 µg/mL and the “intracellular concentration in persister cells” value is 14.0 ± 4.5 µg/mL. Moreover, the “intracellular accumulation, persister cells relative to normal cells” value in [4] is 3.2 times.
In the case of `CN(C)c1ccc(O)c2c1C[C@H]1C[C@H]3[C@H](N(C)C)C(O)=C(C(N)=O)C(=O)[C@@]3(O)C(O)=C1C2=O` [minocycline], the figures for the persister cells killed in series [1] (30 μg/mL), in [1] (50 μg/mL) and in [1] (100 μg/mL) were 47.8±5.3%, 59.0±6.0% and 70.8±5.9%, respectively. Also, the “normal cells of ΔacrB killed” value in series [7] was 99.9±0.01%. The “intracellular concentration in persister cells after wake-up” value in series [4] (4 h after washing the cells and adding LB medium) is 26.8 ± 3.2 pg/mL. Further, the “intracellular concentration in persister cells” value in [4] (after treatment at 100 μg/mL) is 26.9 ± 0.7 µg/mL; in [4] (setting [12]), 2.64e-05 ± 3.5e-06 µg/mL. The “intracellular concentration in normal cells” value in series [4] (setting [12]) turned out to be 1.04e-05 ± 2.2e-06 µg/mL. Moreover, the “red/total fluorescence of treated persister cells” value in [8] (0 min after adding LB) stood at 20.2±3.3%; in [8] (30 min incubation with added LB) it was 37.9±3.0%. In addition, the “normal cells of ΔtolC killed” value in series [9] is reported as 99.7±0.03%. Further, in series [5], the “additional killing compared to 100 μg/mL ampicillin alone” value is recorded as 68%. For the same compound, in series [10], the “normal cells killed after CCCP pretreatment” value is 95.9±2.5%. Also, the “normal cells of ΔacrA killed” value in series [11] was 98.6±0.3%.

The values are drawn from patent US20250034614A1, “PERSISTER CONTROL BY LEVERAGING DORMANCY ASSOCIATED REDUCTION OF ANTIBIOTIC EFFLUX” (Syracuse University, priority 2021, published 2025).
